Structures are written as SMILES.

The text below walks through data of ChEMBL document CHEMBL4043086, “Facile access to pseudo-thio-1,2-dimannoside, a new glycomimetic DC-SIGN antagonist” (Bioorg Med Chem, 2017).

This experiment has as its target T1, CD209 antigen (Homo sapiens, UniProt Q9NNX6).
T1 sequence (Q9NNX6 whole entry): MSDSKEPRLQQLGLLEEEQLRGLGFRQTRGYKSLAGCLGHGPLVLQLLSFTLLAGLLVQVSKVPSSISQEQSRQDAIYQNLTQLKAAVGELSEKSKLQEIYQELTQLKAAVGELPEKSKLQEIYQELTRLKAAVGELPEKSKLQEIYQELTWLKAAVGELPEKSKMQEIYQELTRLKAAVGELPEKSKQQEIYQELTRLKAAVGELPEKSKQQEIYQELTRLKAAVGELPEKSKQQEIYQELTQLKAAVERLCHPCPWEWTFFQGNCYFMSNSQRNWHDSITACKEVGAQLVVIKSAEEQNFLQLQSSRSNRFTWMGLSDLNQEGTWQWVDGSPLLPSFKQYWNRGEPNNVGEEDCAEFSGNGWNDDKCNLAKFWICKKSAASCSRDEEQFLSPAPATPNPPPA
In words: Inhibition of binding of immobilized mannosylated BSA to DC-SIGN extracellular domain (66 to 404 residues) (unknown origin) expressed in Escherichia coli by SPR assay.
As for `COC(=O)[C@H]1C[C@H](OC(=O)C(C)(C)C)[C@@H](S[C@H]2O[C@H](CO)[C@@H](O)[C@H](O)[C@@H]2O)C[C@@H]1C(=O)OC`, the IC50 turned out to be 776 µM.

`COC(=O)[C@H]1C[C@H](OC)[C@@H](S[C@H]2O[C@H](CO)[C@@H](O)[C@H](O)[C@@H]2O)C[C@@H]1C(=O)OC` yielded an IC50 of 776 µM. Then `COC(=O)[C@H]1C[C@H](OC)[C@@H](O[C@H]2O[C@H](CO)[C@@H](O)[C@H](O)[C@@H]2O)C[C@@H]1C(=O)OC`, with 720 µM.

A word on the IC50: it is the midpoint of a concentration-inhibition curve. Low readings indicate greater potency in that assay, high ones weaker potency in that assay.
